{"source": "patent US11498939B2", "about": "“Glucose polymers for peritoneal dialysis” (ROQUETTE FRERES, priority 2016, dated 2022)", "assay": "Effects of the sterilization on GDP production", "assay_type": "physicochemical", "settings": "4% solution in deionized water; sterilization at 121° C. for 15 minutes", "procedure": "In this example, the inventors studied the influence of sterilization on the production of GDPs, namely 5-hydroxymethyl furaldehyde (5-HMF), furaldehyde and 3,4-dideoxyglucosone-3-ene (3,4-DGE), of solutions using various glucose polymers or glucose.\n20 ml solutions containing 4% of each of the substances to be tested were prepared in deionized water. The GDP content was measured after sterilization at 121° C. for 15 minutes.\nThe 5-HMF and furaldehyde content was determined by liquid chromatography using 5-HMF standards (Merck—Ref. 8.206.78.001) or furaldehyde standards for the calibration respectively), and detection by UV spectrophotometry at 280 nm. For the chromatography, a column with a particle size of 9 μm, 8% crosslinking, an internal diameter of 7.8 mm and a length of 300 mm (HPX 87H column—Biorad—Ref. 125.0140) was used. The conditions were the following: eluent 5 mN H2SO4 […], flow rate of 0.8 ml/min.\nThe 3,4-DGE content was determined by liquid chromatography (using pyrazinecarboxamide (Sigma—Ref. P7136) for the calibration) and detection by UV spectrophotometry at 230 nm. For the chromatography, a column with a particle size of 5 μm, a pore size of 120 Å size, an internal diameter of 4.6 mm and a length of 15 cm (Supelcosil LC-18—Supelco—Ref. 58230) was used. The conditions were the following: elution solvent H2O/MeOH, flow rate of 1.0 ml/min.", "data": [{"smiles": "OC[C@H]1OC(O)[C@H](O)[C@@H](O)[C@@H]1O", "note": "(stereo partly shown) [glucose, anhydrous dextrose]", "values": [{"measurement": "GDP content after sterilization (5-HMF, furaldehyde, 3,4-DGE)", "result": "much higher than that of the glucose polymers"}]}]}
